Data set [1] in a line: Turbidimetric solubility assay. It is filed as physicochemical. Particulars: PBS, 37° C., absorbance 620 nm; for solubility at 2 h: aqueous buffer, kinetic from dmso stock.
Data set [2] can be described thus: In vitro stability in simulated gastric and intestinal fluids. It is filed as in vitro ADME. Particulars: 37° C.; for SGF + Enz (compound remaining after 4 hours): SGF with 3.2 mg/ml pepsin; for SGF + Enz (compound remaining after 4 hours) / SIF (compound remaining after 4 hours): 5 μM; for SGF (compound remaining after 4 hours): simulated gastric fluid pH 1.2, 5 μM; for SIF (compound remaining after 4 hours): simulated intestinal fluid pH 6.8 with 10 mg/ml pancreatin. As for the experimental part:
Bioavailability can be estimated by compound stability when exposed to conditions in the body. As an initial assessment of stability properties in a variety of conditions present in animals, exemplary compounds were tested for stability in a battery of simulated body compartments. Compounds were tested for stability in the following solutions: simulated gastric fluid (SGF: 34.2 mM NaCl, pH 1.2), simulated gastric fluid with the digestive enzyme pepsin (SGF+Enzyme: SGF with 3.2 mg/ml pepsin), simulated intestinal fluid with the mixture of enzymes in porcine pancreatin (SIF+Enzyme: 28.7 mM NaH2PO4, 105.7 mM NaCl, pH 6.8, 10 mg/ml pancreatin), rat plasma, and human plasma.
Test compounds were incubated at a final concentration of 5 μM in the above solutions at 37° C. with samples removed at the following time points: 0, 1, 2, and 4 hours. Reactions were stopped and prepared for quantification by addition of excess quench solution containing an internal standard (acetonitrile, 200 ng/mL bucetin). Test compound and internal standard in each sample was quantified by LC-MS/MS, and after internal normalization to bucetin, test compound concentration was expressed as a percentage of concentration at the 0-hour time point. Stability in the relevant test solution was then determined by the percent remaining at the 4-hour time point.

The target of a further data set is T1, HGF/MET system (Homo sapiens, UniProt P08581+P14210).
T1 construct: HEK293 cells were prepared by passage into 6-well multi-plates; endogenous in cells; host or cells: HEK293
The experiment in a line: Phospho-MET ELISA. It is filed as cell-based. Particulars: HEK293 cells, 1 ng/mL recombinant HGF, 15 minutes, pMET ELISA. The gist of the method:
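Serum-starved (≥8 h) HEK293 cells treated with compound plus 1 ng/mL recombinant HGF for 15 min at 37° C in triplicate, then lysed in RIPA. Equal protein (50–100 μg, BCA-normalized) run in pMET sandwich ELISA, A450 read. Responses scaled 1–10 between 1 ng/mL and 10 ng/mL HGF means, using peak efficacy.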
Background: An ELISA detects its analyte on a solid surface through an enzyme-linked reagent.

The subject of the next data set is MDCK cells. The experiment in a line: Cell scattering behavior assay. It is filed as cell-based. The arrangement: key: − indicates that the compound failed to significantly promote cell scattering behavior; + indicates maximum potency at or above 100 nM; ++ indicates maximum potency at or above 10 nM; +++ indicates maximum potency at or above 1 nM; ++++ indicates maximum potency at or above 0.1 nM. Particulars: 5 ng/mL HGF, 24 hours, normalized particle count vs HGF alone. The gist of the method:
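MDCK cells starved 2 h in serum-free DMEM, then treated 24 h at 37 °C with compounds plus 5 ng/mL HGF. Cells were ethanol-fixed, WGA488-stained and imaged. Scattering was scored as particle count normalized to stained area, with activity taken as a statistical increase in normalized particle count over HGF alone.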

Molecules are shown by their SMILES.

T1 sequence (P08581 308-1390 limits assumed): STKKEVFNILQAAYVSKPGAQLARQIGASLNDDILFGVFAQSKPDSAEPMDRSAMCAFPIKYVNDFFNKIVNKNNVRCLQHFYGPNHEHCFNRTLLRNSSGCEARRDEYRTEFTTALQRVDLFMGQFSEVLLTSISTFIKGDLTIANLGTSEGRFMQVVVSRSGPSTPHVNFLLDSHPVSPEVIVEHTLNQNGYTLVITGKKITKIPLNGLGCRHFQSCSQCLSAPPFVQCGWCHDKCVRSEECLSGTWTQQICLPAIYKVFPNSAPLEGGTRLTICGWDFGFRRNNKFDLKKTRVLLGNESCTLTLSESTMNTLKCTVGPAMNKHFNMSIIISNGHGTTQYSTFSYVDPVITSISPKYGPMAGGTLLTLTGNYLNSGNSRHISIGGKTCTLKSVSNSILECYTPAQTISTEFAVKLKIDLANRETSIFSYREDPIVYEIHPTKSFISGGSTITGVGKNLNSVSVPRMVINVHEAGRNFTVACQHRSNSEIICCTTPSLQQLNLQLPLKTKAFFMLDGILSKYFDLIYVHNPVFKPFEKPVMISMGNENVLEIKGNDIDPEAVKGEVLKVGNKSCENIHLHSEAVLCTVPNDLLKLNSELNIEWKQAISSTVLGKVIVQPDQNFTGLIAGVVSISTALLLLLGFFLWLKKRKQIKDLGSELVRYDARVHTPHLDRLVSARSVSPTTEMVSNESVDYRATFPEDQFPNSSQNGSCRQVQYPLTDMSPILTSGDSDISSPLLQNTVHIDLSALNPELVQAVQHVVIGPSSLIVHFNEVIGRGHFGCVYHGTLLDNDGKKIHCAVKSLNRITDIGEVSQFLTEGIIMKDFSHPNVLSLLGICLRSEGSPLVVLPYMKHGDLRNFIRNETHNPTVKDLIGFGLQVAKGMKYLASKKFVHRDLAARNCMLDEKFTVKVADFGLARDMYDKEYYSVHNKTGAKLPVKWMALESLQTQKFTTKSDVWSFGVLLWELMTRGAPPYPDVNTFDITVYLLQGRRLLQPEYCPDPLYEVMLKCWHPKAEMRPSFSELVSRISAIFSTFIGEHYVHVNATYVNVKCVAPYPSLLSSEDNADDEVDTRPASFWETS
T1 sequence (P14210 32-494 limits assumed): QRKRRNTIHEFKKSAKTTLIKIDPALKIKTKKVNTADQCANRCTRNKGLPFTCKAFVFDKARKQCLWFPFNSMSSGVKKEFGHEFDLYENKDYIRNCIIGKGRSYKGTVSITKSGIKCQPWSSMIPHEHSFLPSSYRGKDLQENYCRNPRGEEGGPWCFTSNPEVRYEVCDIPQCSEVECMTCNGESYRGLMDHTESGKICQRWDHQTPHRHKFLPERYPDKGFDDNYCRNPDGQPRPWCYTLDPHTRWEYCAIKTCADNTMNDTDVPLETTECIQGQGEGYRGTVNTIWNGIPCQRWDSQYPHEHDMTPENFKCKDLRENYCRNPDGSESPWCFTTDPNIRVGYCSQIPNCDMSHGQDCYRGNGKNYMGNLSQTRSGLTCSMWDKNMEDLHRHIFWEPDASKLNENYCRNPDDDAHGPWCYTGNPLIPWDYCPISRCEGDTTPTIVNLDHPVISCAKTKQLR

One may read the solubility as how much of the substance goes into solution per volume. In turn, `CCC(C)CN1CC2N(C(=O)c3ccc(C(F)(F)F)cc3)CCC(=O)N2[C@@H](C)C1=O` (stereo partly shown) [Compound 1a] gave a solubility at 2 h in data set [1] of more than 300 µM. In data set [2], the “SGF + Enz (compound remaining after 4 hours)” value is on record as “++++ (++++ indicates 100% compound remaining after 4 hours)”, the “SGF (compound remaining after 4 hours)” value is “++++ (++++ indicates 100% compound remaining after 4 hours)” and the “SIF (compound remaining after 4 hours)” value is on record as “++++ (++++ indicates 100% compound remaining after 4 hours)”. At HGF/MET system, the “Potency (augmentation of MET phosphorylation)” value is “++++ (++++ indicates maximum potency at or above 0.1 nM)”. The “Potency (cell scattering)” value in the data set on MDCK cells is listed as “++++ (++++ indicates maximum potency at or above 0.1 nM)”.
Compound `CCC(C)CN1CC2N(C(=O)c3ccc(OC(F)F)cc3)CCC(=O)N2[C@@H](C)C1=O` (stereo partly shown) [Compound 2a] came in with a solubility at 2 h in data set [1] of more than 300 µM. Moreover, in data set [2], the “SGF + Enz (compound remaining after 4 hours)” value is “+++ (+++ indicates 80-99% compound remaining after 4 hours)”, the “SGF (compound remaining after 4 hours)” value was “++++ (++++ indicates 100% compound remaining after 4 hours)” and the “SIF (compound remaining after 4 hours)” value is listed as “++++ (++++ indicates 100% compound remaining after 4 hours)”. For the same compound, at HGF/MET system, the “Potency (augmentation of MET phosphorylation)” value is “++ (++ indicates maximum potency at or above 10 nM)”. The “Potency (cell scattering)” value in the data set on MDCK cells is reported as “+ (+ indicates maximum potency at or above 100 nM)”.
Regarding `CCC(C)CN1CC2N(Cc3ccc(C(F)(F)F)cc3)CCC(=O)N2[C@@H](C)C1=O` (stereo partly shown) [Compound 5a], the solubility at 2 h in data set [1] is more than 300 µM. Besides, in data set [2], the “SGF + Enz (compound remaining after 4 hours)” value is “+ (+ indicates 20-39% compound remaining after 4 hours)”, the “SGF (compound remaining after 4 hours)” value is “+++ (+++ indicates 80-99% compound remaining after 4 hours)” and the “SIF (compound remaining after 4 hours)” value was “+++ (+++ indicates 80-99% compound remaining after 4 hours)”. Moreover, at HGF/MET system, the “Potency (augmentation of MET phosphorylation)” value was “+ (+ indicates maximum potency at or above 100 nM)”. Besides, the “Potency (cell scattering)” value with MDCK cells is “++++ (++++ indicates maximum potency at or above 0.1 nM)”.
In turn, `CCC(C)CN1CC2N(Cc3ccc(OC(F)F)cc3)CCC(=O)N2[C@@H](C)C1=O` (stereo partly shown) [Compound 6a] had a solubility at 2 h in data set [1] of more than 300 µM. In data set [2], the “SGF + Enz (compound remaining after 4 hours)” value is “+ (+ indicates 20-39% compound remaining after 4 hours)”, the “SGF (compound remaining after 4 hours)” value is listed as “+++ (+++ indicates 80-99% compound remaining after 4 hours)” and the “SIF (compound remaining after 4 hours)” value is “++ (++ indicates 40-79% compound remaining after 4 hours)”. Besides, the “Potency (augmentation of MET phosphorylation)” value on HGF/MET system was “+ (+ indicates maximum potency at or above 100 nM)”. In addition, the “Potency (cell scattering)” value in the data set with MDCK cells was “+++ (+++ indicates maximum potency at or above 1 nM)”.
Turning to `CCC(C)CN1CC2N(Cc3ccc(O)nc3)CCC(=O)N2[C@@H](C)C1=O` (stereo partly shown) [Compound 7a], the solubility at 2 h in data set [1] is more than 300 µM. For the same compound, in data set [2], the “SGF + Enz (compound remaining after 4 hours)” value was “+++ (+++ indicates 80-99% compound remaining after 4 hours)”, the “SGF (compound remaining after 4 hours)” value is “++++ (++++ indicates 100% compound remaining after 4 hours)” and the “SIF (compound remaining after 4 hours)” value is on record as “++ (++ indicates 40-79% compound remaining after 4 hours)”. Moreover, the “Potency (augmentation of MET phosphorylation)” value at HGF/MET system was “++ (++ indicates maximum potency at or above 10 nM)”. Besides, the “Potency (cell scattering)” value in the data set with MDCK cells was “++ (++ indicates maximum potency at or above 10 nM)”.
`CCC(C)CN1CC2N(C(=O)c3ccc(O)cc3)CCC(=O)N2[C@@H](C)C1=O` (stereo partly shown) [Compound 8a]: the Solubility result in data set [1] (2 hours) was “++++ (++++ indicates solubility at 300 μM)”. Further, in data set [2], the “SGF + Enz (compound remaining after 4 hours)” value is recorded as “+++ (+++ indicates 80-99% compound remaining after 4 hours)”, the “SGF (compound remaining after 4 hours)” value is reported as “++++ (++++ indicates 100% compound remaining after 4 hours)” and the “SIF (compound remaining after 4 hours)” value is listed as “+++ (+++ indicates 80-99% compound remaining after 4 hours)”. Moreover, the “Potency (augmentation of MET phosphorylation)” value on HGF/MET system is on record as “+ (+ indicates maximum potency at or above 100 nM)”. The “Potency (cell scattering)” value in the data set on MDCK cells is “+++ (+++ indicates maximum potency at or above 1 nM)”.
`CCC(C)CN1CC2N(C(=O)c3ccc(F)cc3)CCC(=O)N2C(C)C1=O` (stereo not shown) [Compound 11, 1-(4-fluorobenzoyl)-6-methyl-8-(2-methylbutyl)hexahydro-4H-pyrazino[1,2-a]pyrimidine-4,7(6H)-dione] came in with a solubility at 2 h in data set [1] of more than 300 µM. In data set [2], the “SGF + Enz (compound remaining after 4 hours)” value is “+++ (+++ indicates 80-99% compound remaining after 4 hours)”, the “SGF (compound remaining after 4 hours)” value was “+++ (+++ indicates 80-99% compound remaining after 4 hours)” and the “SIF (compound remaining after 4 hours)” value is listed as “++++ (++++ indicates 100% compound remaining after 4 hours)”. Besides, on HGF/MET system, the “Potency (augmentation of MET phosphorylation)” value is “+++ (+++ indicates maximum potency at or above 1 nM)”. In the data set on MDCK cells, the “Potency (cell scattering)” value was “++ (++ indicates maximum potency at or above 10 nM)”.
`CCC(C)CN1CC2N(C(=O)c3ccc(C(F)(F)F)c(Cl)c3)CCC(=O)N2C(C)C1=O` (stereo not shown) [Compound 12, 1-(3-chloro-4-(trifluoromethyl)benzoyl)-6-methyl-8-(2-methylbutyl)hexahydro-4H-pyrazino[1,2-a]pyrimidine-4,7(6H)-dione]: in data set [1], the solubility at 2 h is more than 300 µM. Besides, in data set [2], the “SGF + Enz (compound remaining after 4 hours)” value is reported as “+++ (+++ indicates 80-99% compound remaining after 4 hours)”, the “SGF (compound remaining after 4 hours)” value is reported as “+++ (+++ indicates 80-99% compound remaining after 4 hours)” and the “SIF (compound remaining after 4 hours)” value is “++ (++ indicates 40-79% compound remaining after 4 hours)”. The “Potency (augmentation of MET phosphorylation)” value on HGF/MET system is listed as “++ (++ indicates maximum potency at or above 10 nM)”. In the data set on MDCK cells, the “Potency (cell scattering)” value is on record as “++ (++ indicates maximum potency at or above 10 nM)”.
Consider `CC1C(=O)N(CC2CCC2)CC2N(C(=O)c3ccc(OC(F)F)cc3)CCC(=O)N12` (stereo not shown) [Compound 14], for which the solubility at 2 h in data set [1] is more than 300 µM. In addition, in data set [2], the “SGF + Enz (compound remaining after 4 hours)” value is recorded as “++ (++ indicates 40-79% compound remaining after 4 hours)”, the “SGF (compound remaining after 4 hours)” value was “++ (++ indicates 40-79% compound remaining after 4 hours)” and the “SIF (compound remaining after 4 hours)” value is “+++ (+++ indicates 80-99% compound remaining after 4 hours)”.
In data set [1], `CCCCN1CC2N(C(=O)c3ccc(OC(F)F)cc3)CCC(=O)N2C(C)C1=O` (stereo not shown) [Compound 17] returned a solubility at 2 h of more than 300 µM. In addition, in data set [2], the “SGF + Enz (compound remaining after 4 hours)” value is listed as “+++ (+++ indicates 80-99% compound remaining after 4 hours)”, the “SGF (compound remaining after 4 hours)” value was “+++ (+++ indicates 80-99% compound remaining after 4 hours)” and the “SIF (compound remaining after 4 hours)” value is recorded as “+++ (+++ indicates 80-99% compound remaining after 4 hours)”. For the same compound, at HGF/MET system, the “Potency (augmentation of MET phosphorylation)” value was “+++ (+++ indicates maximum potency at or above 1 nM)”. Further, in the data set on MDCK cells, the “Potency (cell scattering)” value is “−”.
Compound `CC1C(=O)N(CCC2CCCC2)CC2N(C(=O)c3ccc(C(F)(F)F)cc3)CCC(=O)N12` (stereo not shown) [Compound 19] came in with a solubility at 2 h in data set [1] of more than 300 µM. In data set [2], the “SGF + Enz (compound remaining after 4 hours)” value is reported as “++ (++ indicates 40-79% compound remaining after 4 hours)”, the “SGF (compound remaining after 4 hours)” value is “+++ (+++ indicates 80-99% compound remaining after 4 hours)” and the “SIF (compound remaining after 4 hours)” value was “+ (+ indicates 20-39% compound remaining after 4 hours)”. For the same compound, the “Potency (augmentation of MET phosphorylation)” value on HGF/MET system is recorded as “+++ (+++ indicates maximum potency at or above 1 nM)”. Moreover, in the data set with MDCK cells, the “Potency (cell scattering)” value was “+++ (+++ indicates maximum potency at or above 1 nM)”.

(Values after patent US20240025903A1, “Bicyclic Compounds and Uses Thereof for the Treatment of Diseases” (Athira Pharma, Inc., priority 2020, published 2024).)
